Experiments:
Assay in all cases: relative viability (nuclei count vs DMSO), 5 days (fraction); higher = more cells survive
Decitabine + Crizotinib = compound: Nc1ncn([C@H]2C[C@H](O)[C@@H](CO)O2)c(=O)n1 [Decitabine] + C[C@@H](Oc1cc(-c2cnn(C3CCNCC3)c2)cnc1N)c1c(Cl)ccc(F)c1Cl [Crizotinib] (partner 1 µM)
Outline: (§1)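 Cells from lung cancer lines were seeded into 1536-well plates and, one day later, dosed by pin tool. Treatments were either a single drug or a fixed dose of an anchor drug with five library-drug doses (not always all listed) in √10 steps. After 5 days, nuclei were stained in a one-step fixation (final 0.05% Triton X-100, 1% formaldehyde, 1 ug/ml Hoechst) and counted on 4× images, and relative viability is the treated-to-vehicle nuclei ratio, as the median of duplicate plates.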

[1] = compound: O=C(C[C@H]1NCCC[C@@H]1O)Cn1cnc2cc(Br)c(Cl)cc2c1=O (racemic) [Halofuginone] + CS(=O)(=O)N1CCN(Cc2cc3nc(-c4cccc5[nH]ncc45)nc(N4CCOCC4)c3s2)CC1 [Pictilisib] (partner 1 µM)
Outline: as §1

Cediranib + Decitabine = compound: COc1cc2c(Oc3ccc4[nH]c(C)cc4c3F)ncnc2cc1OCCCN1CCCC1 [Cediranib] + Nc1ncn([C@H]2C[C@H](O)[C@@H](CO)O2)c(=O)n1 [Decitabine] (partner 2 µM)
Outline: as §1

Decitabine + Trametinib = compound: Nc1ncn([C@H]2C[C@H](O)[C@@H](CO)O2)c(=O)n1 [Decitabine] + CC(=O)Nc1cccc(-n2c(=O)n(C3CC3)c(=O)c3c(Nc4ccc(I)cc4F)n(C)c(=O)c(C)c32)c1 [Trametinib] (partner 0.02 µM)
Outline: as §1

UMC-11
relative viability (Decitabine + Crizotinib; first compound 0.04 µM): 0.483
relative viability (Decitabine + Crizotinib; first compound 0.1265 µM): 0.451
relative viability (Decitabine + Crizotinib; first compound 0.4 µM): 0.398
relative viability (Decitabine + Crizotinib; first compound 1.265 µM): 0.209
relative viability (Decitabine + Crizotinib; first compound 4 µM): 0.168
relative viability ([1]; first compound 0.001 µM): 0.9
relative viability ([1]; first compound 0.003162 µM): 0.76
relative viability ([1]; first compound 0.01 µM): 0.772
relative viability ([1]; first compound 0.03162 µM): 0.758
relative viability ([1]; first compound 0.1 µM): 0.648
relative viability (Cediranib + Decitabine; first compound 0.04 µM): 0.617
relative viability (Cediranib + Decitabine; first compound 0.1265 µM): 0.528
relative viability (Cediranib + Decitabine; first compound 0.4 µM): 0.557
relative viability (Cediranib + Decitabine; first compound 1.265 µM): 0.555
relative viability (Cediranib + Decitabine; first compound 4 µM): 0.633
relative viability (Decitabine + Trametinib; first compound 0.04 µM): 0.697
relative viability (Decitabine + Trametinib; first compound 0.1265 µM): 0.609
relative viability (Decitabine + Trametinib; first compound 0.4 µM): 0.4
relative viability (Decitabine + Trametinib; first compound 1.265 µM): 0.331
relative viability (Decitabine + Trametinib; first compound 4 µM): 0.367

Reference: the supplement of paper PMC10307832
